Earlier results on 1 compound are cited in patent US10551383B2, “Methods of detecting a polypeptide having anaplastic lymphoma kinase activity in kidney cancer” (Cell Signaling Technology, Inc., priority 2010, dated 2020).

The structures appear in SMILES notation.

For this data set, the system named is HGF-stimulated Madin-Darby Canine Kidney (MDCK) cells. The note with it: disclosed in U.S. Pub. No. 2008/0300273.

Regarding `C[C@@H](Oc1cc(-c2cnn(C3CCNCC3)c2)cnc1N)c1c(Cl)ccc(F)c1Cl` [PF-02341066, Crizotinib], the cell colony scattering entry is reported as “able to reduce cell colony scattering”.
